Data set [1] deals with T1, MR (Homo sapiens, UniProt P08235).
T1 sequence (P08235 1-984): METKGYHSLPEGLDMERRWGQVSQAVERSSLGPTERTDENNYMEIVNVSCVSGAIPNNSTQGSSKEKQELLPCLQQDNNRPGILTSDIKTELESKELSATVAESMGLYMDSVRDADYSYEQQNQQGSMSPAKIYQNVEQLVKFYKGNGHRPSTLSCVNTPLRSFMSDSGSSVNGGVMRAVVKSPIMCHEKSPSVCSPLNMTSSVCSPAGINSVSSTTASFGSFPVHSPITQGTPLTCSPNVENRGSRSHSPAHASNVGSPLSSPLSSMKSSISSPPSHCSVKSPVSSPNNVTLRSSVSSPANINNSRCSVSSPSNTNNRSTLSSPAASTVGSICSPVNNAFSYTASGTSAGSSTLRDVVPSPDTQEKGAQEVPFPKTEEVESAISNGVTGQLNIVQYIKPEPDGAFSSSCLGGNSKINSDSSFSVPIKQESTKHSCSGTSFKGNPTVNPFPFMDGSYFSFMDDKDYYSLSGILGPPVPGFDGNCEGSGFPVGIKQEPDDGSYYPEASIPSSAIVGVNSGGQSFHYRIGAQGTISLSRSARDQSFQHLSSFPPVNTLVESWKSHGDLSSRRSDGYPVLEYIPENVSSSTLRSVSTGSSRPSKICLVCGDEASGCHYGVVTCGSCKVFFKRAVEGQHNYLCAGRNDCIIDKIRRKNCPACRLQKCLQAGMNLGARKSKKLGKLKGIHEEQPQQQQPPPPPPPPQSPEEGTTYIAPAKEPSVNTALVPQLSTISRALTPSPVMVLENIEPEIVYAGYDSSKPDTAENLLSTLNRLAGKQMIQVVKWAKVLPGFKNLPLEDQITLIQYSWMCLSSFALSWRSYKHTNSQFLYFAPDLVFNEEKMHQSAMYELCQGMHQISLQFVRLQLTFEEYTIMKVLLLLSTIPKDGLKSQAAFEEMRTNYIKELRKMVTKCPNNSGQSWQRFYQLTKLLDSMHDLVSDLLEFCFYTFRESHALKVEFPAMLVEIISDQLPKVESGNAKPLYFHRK
In words: Mineralocorticoid Receptor Binding Assay (Method 1), [3H]-aldosterone competition. Particulars: human MR expressed in Sf9 cells, 0.5 nM [3H]-aldosterone. Details: The full length human MR gene is cloned from a human kidney or human brain cDNA library; made in house; host or cells: SF9 insect cells (pAcHLT baculovirus transfer vector). The method, then: Mineralocorticoid Receptor Binding Assay (Method 1):
The full length human MR gene is cloned from a human kidney or human brain cDNA library. Briefly, using synthetic oligonucleotide primers (Eli Lilly and Company, Indianapolis) directed to nucleotides 20-54 and 3700-3666 of the human MR, polymerase chain reaction (PCR) is performed under standard conditions using a human cDNA library. The PCR reaction is performed in a final volume of 50 μl containing about 1μl of a 50× stock solution of polymerase; about 1 μl of a 50× stock solution of dNTP; about 5μl of an appropriate PCR buffer; about 1 μl of each primer; about 5 μl of a H. kidney or H. brain cDNA library; and about 36 μl of water. The reaction is allowed to denature for about 30 seconds at 95 degrees Celsius, anneal for about 30 seconds at 55 degrees Celsius, and extend for about 5 minutes at 72 degrees Celsius, the sequence being repeated for a total of about 35 cycles. The desired PCR product (3.68 Kb) is confirmed by gel electrophoresis and subsequently cut from the gel and stored at about −20 degrees Celsius until extraction. To extract the cDNA product from the agarose gel, the QIAEX II Gel Extraction protocol (QIAGEN, Inc.) is employed according to the manufacturer's instructions. Following extraction, the MR cDNA is cloned into an appropriate cloning vector (Zero Blunt TOPO PCR Cloning Kit (Invitrogen, Inc.) and a pAcHLT-baculovirus transfer vector (B.D./Pharminogen), then expressed in SF9 insect cells, essentially according to manufacturer's instructions. Sf9 cells are grown at a scale where gram quantity cell pellets are obtained for subsequent use in the MR binding assay. Harvested cell pellets are lysed by repeated freeze-thaw cycles (about 4) in a suitable lysis buffer then centrifuged at about 1×10^3G (with the supernatant being saved for future assays).
MR binding assays are performed in a final total volume of about 250 μl containing about 20-25 μg of protein and 0.5 nM of [^3H]-aldosterone plus varying concentrations of test compound or vehicle. The assay binding buffer consists of 30 mM sodium molybdate, 30 mM of TRIS-HCl, 5 mM sodium phosphate, 5 mM sodium pyrophosphate, and about 10% glycerol, pH=7.5.
Briefly, assays are prepared at RT in 96-well Falcon 3072 plates, each well containing 210 μof binding buffer, 10 μl of […], 10 μl of test compound/vehicle, and 20 μl of the resuspended receptor protein extract. Incubations are carried out at 4 degrees Celsius with shaking for about 16 hours. 200 μl aliquots of each incubation are filtered onto Millipore HA 0.45 micron 96-well filter plates, pre-moistened with cold 30 mM TRIS-HCl. The filter plates are suctioned dry with vacuum and immediately washed 3× with cold 30 mM TRIS-HCl. The plates are then punched out and the amount of receptor-ligand complex is determined by liquid scintillation counting using 4 ml of Ready Protein Plus™ liquid scintillation cocktail.

The target of data set [2] is T1, MR. On the set-up: host or cells: patients with advanced CHF. Particulars: in combination with standard CHF therapy, patients suffering from advanced CHF; cited from earlier work.
A further data set deals with T2, glucocorticoid receptor (Homo sapiens, UniProt P04150).
T2 construct: host or cells: A549 human lung epithelial cells
T2 sequence (P04150 1-777): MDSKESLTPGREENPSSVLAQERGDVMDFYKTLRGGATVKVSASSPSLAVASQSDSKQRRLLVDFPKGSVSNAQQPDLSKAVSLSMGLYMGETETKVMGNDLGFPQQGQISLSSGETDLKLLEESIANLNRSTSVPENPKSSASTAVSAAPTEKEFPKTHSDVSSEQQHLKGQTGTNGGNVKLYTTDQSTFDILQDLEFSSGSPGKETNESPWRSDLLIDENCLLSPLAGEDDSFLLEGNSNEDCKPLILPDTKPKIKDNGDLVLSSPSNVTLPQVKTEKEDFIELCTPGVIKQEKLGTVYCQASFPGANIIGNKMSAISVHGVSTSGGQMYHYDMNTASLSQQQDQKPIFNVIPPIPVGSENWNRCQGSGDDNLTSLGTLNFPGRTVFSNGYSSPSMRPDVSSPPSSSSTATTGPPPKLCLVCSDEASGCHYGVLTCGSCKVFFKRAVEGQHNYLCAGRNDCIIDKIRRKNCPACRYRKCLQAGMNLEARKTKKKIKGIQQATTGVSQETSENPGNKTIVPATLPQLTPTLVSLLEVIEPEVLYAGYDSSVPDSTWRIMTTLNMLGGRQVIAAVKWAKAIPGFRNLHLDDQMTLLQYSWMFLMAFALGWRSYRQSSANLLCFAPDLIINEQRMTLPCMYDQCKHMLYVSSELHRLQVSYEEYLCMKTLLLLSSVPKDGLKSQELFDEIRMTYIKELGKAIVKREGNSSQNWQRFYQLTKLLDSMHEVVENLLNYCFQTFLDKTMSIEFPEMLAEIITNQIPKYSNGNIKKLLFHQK
In words: Glucocorticoid Receptor Binding Assay (Method 1), [3H]-dexamethasone competition in A549 cell extract. Conditions: 1.86 nM [3H]-dexamethasone, read-out: GR Ki (nM) Method 1. The protocol: Glucocorticoid Receptor Binding Assay (Method 1):
A549 human lung epithelial cells (ATCC) are grown at a scale where gram quantity cell pellets are obtained. Harvested cell pellets are washed twice in cold phosphate buffered saline, centrifuged, and resuspended in cold assay binding buffer. The assay binding buffer consists of 10% glycerol, 50 mM Tris-HCl (pH7.2), 75 mM sodium chloride, 1.5 mM magnesium chloride, 1.5 mM EDTA, and 10 mM sodium molybdate. Cell suspensions were lysed via sonication, centrifuged, and the “extract” supernatant is snap frozen and stored at −80 C. until needed.
GR binding assays are performed in a final volume of 140 ul containing 50-200 ug of A549 cell extract and 1.86 nM [^3H]-dexamethasone (Amersham) plus varying concentrations of test compound or vehicle. Briefly, assays are prepared at RT in 96-well Fisher 3356 plates, each well containing 100 ul of A549 cell extract, 20 ul of [^3H]-dexamethasone, and 20 ul of test compound/vehicle. Incubations are carried out at 4 degrees Celsius for 16 hours. After incubation, 70 ul of 3× dextran-coated charcoal solution is added to each reaction, mixed, and incubated for 8 minutes at RT. 3×-dextran-coated charcoal solution consists of 250 ml assay binding buffer, 3.75 g Norit A charcoal (Sigma), and 1.25 g dextran T-70 (Amersham). Charcoal/unbound radioligand complexes are removed by centrifugation of the plate and 140 ul of supernatant from each well is transferred to another 96 well Optiplate (Packard Instruments). 200 ul of Microscint-20 scinillant (Packard Instruments) is added to each well and amount of receptor bound radioligand is determined using Packard Instruments TopCount instrument.

One may read the Ki as a measure of affinity in units of concentration, obtained from inhibition or displacement. Consider `O=c1[nH]c2cc(C=C3c4ccccc4Sc4ccccc43)ccc2n1-c1cccnc1` [Example 17], for which, at MR [1], the Ki is below 500 nM.

As to `CC(=O)S[C@@H]1CC2=CC(=O)CC[C@]2(C)[C@H]2CC[C@@]3(C)[C@@H](CC[C@@]34CCC(=O)O4)[C@H]12` [spironolactone], at MR [2], the “reduced cardiac related mortality” value was 30% and the “reduced frequency of hospitalization” value is reported as 35%.

One may read the melting point as the temperature, or range, at which the solid turns liquid. `Oc1cccc(C=C2c3ccccc3Cc3ccccc32)c1` [Example 19, 3-(10H-Anthracen-9-ylidenemethyl)-phenol] gave a melting point of 195.8 °C. In addition, the inhibition constant Ki on MR [1] was below 500 nM. Besides, on glucocorticoid receptor, the inhibition constant Ki is below 10000 nM.

As for `CS(=O)(=O)Nc1cccc(C=C2c3ccccc3Oc3ccccc32)c1` [Example 20, N-(3-Xanthen-9-ylidenemethyl-phenyl)-methanesulfonamide], the Ki was below 500 nM at MR [1] and below 1000 nM on glucocorticoid receptor.

With `COc1cccc(C=C2c3ccccc3Cc3ccccc32)c1` [Example 18, 9-(3-Methoxy-benzylidene)-9,10-dihydro-anthracene], the inhibition constant (Ki) is below 500 nM on MR [1] and below 10000 nM at glucocorticoid receptor.

Take `CC(C)n1c(=O)[nH]c2cc(C=C3c4ccccc4Sc4ccccc43)ccc21` [Example 16]: the Ki at MR [1] is below 500 nM.

Source of the values: patent publication US7482344B2, “Tricyclic steroid hormone nuclear receptor modulators” (Eli Lilly and Company, priority 2003, dated 2009).
